Test [1] concerns the target T1, Calcium/calmodulin-dependent protein kinase type IV (Homo sapiens) (UniProt Q16566).
T1 sequence (whole entry): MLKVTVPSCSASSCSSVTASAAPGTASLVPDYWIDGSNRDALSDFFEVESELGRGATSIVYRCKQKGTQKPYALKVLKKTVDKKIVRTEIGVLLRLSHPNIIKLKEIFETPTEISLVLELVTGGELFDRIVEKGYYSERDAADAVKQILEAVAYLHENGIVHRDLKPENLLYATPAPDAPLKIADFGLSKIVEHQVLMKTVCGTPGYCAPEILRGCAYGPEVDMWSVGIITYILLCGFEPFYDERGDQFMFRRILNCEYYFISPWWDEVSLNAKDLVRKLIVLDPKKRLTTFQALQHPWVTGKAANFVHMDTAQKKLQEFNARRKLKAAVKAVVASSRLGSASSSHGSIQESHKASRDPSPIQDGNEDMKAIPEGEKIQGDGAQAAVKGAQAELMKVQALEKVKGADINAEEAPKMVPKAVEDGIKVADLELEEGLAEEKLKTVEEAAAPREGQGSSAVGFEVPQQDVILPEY

Test [2] concerns the target Calcium/calmodulin-dependent protein kinase kinase 2 (Homo sapiens, UniProt Q96RR4).
Test [3] has as its target Casein kinase I isoform gamma-1 (Homo sapiens) (UniProt Q9HCP0).
The target of test [4] is T2, Myotonin-protein kinase (Homo sapiens) (UniProt Q09013).
T2 sequence (whole entry): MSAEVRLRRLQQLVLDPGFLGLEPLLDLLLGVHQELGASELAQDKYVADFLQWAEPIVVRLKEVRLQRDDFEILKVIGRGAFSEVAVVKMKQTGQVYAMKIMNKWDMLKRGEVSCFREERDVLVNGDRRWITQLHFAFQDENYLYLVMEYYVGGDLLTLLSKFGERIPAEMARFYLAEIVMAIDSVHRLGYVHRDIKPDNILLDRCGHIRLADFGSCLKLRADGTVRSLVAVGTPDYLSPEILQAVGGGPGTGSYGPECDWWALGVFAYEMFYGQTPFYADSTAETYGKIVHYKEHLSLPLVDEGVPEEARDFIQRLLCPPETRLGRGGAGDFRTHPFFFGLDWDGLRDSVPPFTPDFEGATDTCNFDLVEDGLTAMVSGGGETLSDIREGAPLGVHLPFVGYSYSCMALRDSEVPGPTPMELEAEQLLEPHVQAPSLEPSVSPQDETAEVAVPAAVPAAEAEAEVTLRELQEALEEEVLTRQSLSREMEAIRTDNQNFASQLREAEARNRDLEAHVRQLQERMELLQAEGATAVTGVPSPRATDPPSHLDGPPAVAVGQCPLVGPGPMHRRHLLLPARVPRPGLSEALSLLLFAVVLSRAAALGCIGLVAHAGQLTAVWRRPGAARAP

In test [5] the target is T3, Mitogen-activated protein kinase kinase kinase 5 (Homo sapiens) (UniProt Q99683).
T3 sequence (whole entry): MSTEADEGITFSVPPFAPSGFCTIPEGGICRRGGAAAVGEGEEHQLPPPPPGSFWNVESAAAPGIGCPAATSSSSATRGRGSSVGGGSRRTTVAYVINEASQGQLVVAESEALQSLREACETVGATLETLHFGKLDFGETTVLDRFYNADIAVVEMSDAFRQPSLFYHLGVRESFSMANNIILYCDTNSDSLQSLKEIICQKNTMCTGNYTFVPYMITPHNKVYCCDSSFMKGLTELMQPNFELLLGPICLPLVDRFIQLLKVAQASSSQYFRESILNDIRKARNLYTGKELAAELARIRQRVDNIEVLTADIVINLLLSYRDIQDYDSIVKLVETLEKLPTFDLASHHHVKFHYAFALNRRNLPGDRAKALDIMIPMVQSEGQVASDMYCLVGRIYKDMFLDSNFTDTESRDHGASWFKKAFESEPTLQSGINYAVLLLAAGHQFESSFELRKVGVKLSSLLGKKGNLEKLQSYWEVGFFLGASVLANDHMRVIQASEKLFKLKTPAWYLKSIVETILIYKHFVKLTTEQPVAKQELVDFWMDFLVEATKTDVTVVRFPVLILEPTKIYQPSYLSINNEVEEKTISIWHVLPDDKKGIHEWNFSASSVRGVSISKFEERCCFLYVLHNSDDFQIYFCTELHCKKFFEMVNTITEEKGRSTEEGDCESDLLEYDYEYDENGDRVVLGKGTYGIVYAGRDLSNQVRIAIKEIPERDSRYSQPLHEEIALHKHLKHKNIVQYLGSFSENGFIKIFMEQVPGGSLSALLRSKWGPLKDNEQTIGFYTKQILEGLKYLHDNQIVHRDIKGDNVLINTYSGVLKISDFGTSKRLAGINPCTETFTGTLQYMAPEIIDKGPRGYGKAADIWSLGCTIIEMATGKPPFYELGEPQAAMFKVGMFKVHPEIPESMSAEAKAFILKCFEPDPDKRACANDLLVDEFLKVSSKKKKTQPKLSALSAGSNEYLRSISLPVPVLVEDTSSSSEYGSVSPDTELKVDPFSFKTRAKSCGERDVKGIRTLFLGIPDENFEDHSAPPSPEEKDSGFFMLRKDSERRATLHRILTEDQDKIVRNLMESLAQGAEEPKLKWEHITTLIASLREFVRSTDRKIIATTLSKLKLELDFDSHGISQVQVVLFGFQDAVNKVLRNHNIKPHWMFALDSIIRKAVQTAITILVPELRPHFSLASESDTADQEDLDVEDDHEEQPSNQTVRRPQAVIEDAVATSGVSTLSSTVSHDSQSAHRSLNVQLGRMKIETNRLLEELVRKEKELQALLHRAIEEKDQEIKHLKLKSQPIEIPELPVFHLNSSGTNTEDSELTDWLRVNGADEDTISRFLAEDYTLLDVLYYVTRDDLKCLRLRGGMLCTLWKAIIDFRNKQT

In test [6] the target is Serine/threonine-protein kinase 26 (Homo sapiens) (UniProt Q9P289).
Sequence of Serine/threonine-protein kinase 26 (Homo sapiens) (Q9P289 2-416 limits assumed): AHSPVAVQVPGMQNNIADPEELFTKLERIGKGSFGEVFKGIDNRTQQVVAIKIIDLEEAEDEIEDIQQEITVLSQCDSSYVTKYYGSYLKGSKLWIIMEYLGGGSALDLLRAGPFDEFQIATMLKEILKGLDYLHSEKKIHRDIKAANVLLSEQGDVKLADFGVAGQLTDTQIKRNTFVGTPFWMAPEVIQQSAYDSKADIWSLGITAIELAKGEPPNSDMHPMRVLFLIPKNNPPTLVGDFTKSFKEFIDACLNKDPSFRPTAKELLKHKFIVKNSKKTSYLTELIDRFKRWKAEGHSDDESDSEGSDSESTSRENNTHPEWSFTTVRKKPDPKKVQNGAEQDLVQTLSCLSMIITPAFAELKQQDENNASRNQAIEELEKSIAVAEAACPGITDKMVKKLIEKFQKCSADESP
Test [7] has as its target Serine/threonine-protein kinase PAK 4 (Homo sapiens) (UniProt O96013).
Test [8] concerns the target Cyclin-dependent kinase 16 (Homo sapiens) (UniProt Q00536).
The target of test [9] is Serine/threonine-protein kinase pim-3 (Homo sapiens) (UniProt Q86V86).
Test [10] concerns the target Ribosomal protein S6 kinase alpha-3 (Homo sapiens) (UniProt P51812).
For test [11], the target named is TRAF2 and NCK-interacting protein kinase (Homo sapiens) (UniProt Q9UKE5).
Sequence of TRAF2 and NCK-interacting protein kinase (Homo sapiens) (Q9UKE5 whole entry, looked up): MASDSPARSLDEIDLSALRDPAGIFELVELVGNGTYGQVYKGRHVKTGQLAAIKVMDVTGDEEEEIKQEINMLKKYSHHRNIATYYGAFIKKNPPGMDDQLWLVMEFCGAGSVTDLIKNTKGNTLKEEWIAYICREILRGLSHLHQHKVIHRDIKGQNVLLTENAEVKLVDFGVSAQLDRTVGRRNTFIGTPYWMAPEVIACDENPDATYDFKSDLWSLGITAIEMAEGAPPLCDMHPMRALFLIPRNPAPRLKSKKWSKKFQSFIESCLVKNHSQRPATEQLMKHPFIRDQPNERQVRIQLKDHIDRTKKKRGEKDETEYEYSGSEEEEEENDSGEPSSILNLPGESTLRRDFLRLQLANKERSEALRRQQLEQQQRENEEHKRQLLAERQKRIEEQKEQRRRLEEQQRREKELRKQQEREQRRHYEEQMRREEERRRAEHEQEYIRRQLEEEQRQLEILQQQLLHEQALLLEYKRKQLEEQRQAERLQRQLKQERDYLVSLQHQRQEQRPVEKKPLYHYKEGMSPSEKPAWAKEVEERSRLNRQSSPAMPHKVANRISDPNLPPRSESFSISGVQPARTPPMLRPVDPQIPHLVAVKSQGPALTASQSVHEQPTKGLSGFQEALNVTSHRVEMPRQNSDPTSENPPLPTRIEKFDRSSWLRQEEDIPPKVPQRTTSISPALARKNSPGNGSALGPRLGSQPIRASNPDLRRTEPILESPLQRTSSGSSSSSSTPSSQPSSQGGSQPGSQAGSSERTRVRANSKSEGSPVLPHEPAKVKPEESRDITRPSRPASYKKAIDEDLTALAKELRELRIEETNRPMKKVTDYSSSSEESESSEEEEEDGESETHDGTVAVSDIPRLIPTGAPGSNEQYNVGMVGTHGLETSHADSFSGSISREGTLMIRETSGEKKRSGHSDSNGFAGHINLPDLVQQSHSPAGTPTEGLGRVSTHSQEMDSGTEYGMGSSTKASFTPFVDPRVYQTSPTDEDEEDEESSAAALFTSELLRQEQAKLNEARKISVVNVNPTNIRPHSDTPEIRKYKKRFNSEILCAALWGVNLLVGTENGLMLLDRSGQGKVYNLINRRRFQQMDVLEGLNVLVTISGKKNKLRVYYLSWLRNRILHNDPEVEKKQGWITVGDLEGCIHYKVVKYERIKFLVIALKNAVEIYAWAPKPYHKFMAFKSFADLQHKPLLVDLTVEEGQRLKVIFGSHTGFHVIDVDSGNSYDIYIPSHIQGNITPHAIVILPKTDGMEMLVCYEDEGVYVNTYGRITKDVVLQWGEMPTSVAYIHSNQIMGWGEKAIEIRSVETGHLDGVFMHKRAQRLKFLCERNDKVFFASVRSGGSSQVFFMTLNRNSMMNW

Sequence of Serine/threonine-protein kinase PAK 4 (Homo sapiens) (O96013 whole entry, looked up): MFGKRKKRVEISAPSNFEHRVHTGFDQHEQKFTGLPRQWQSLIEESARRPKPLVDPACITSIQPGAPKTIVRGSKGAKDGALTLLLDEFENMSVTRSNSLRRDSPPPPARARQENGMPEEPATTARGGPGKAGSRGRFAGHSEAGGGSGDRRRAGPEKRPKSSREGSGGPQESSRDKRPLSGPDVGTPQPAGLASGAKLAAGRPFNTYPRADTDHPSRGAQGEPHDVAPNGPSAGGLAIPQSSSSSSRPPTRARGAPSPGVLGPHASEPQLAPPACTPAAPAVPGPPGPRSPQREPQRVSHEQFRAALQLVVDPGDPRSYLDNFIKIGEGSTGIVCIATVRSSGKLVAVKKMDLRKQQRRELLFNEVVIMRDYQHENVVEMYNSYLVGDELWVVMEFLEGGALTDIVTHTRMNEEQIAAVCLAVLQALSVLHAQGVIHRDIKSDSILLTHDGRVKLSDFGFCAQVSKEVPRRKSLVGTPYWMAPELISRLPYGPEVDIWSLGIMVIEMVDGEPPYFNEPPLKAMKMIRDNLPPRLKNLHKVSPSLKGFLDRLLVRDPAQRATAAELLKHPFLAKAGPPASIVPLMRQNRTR
Sequence of Calcium/calmodulin-dependent protein kinase kinase 2 (Q96RR4 2-588 limits assumed): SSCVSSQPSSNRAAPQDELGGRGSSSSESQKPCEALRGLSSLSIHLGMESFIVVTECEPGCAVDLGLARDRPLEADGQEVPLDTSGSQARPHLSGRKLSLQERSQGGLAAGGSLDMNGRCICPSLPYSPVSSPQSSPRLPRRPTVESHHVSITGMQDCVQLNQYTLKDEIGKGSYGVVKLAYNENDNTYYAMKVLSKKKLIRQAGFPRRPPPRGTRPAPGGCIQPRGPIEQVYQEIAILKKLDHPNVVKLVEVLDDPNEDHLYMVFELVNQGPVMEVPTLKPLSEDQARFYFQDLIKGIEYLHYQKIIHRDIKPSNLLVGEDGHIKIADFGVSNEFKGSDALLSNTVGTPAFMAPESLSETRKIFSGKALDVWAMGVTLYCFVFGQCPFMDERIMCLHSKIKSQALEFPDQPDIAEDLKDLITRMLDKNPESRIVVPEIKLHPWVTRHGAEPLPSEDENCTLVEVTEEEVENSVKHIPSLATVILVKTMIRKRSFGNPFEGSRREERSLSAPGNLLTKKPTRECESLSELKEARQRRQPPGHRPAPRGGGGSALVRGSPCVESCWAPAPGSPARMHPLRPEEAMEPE
Sequence of Ribosomal protein S6 kinase alpha-3 (Homo sapiens) (P51812 whole entry): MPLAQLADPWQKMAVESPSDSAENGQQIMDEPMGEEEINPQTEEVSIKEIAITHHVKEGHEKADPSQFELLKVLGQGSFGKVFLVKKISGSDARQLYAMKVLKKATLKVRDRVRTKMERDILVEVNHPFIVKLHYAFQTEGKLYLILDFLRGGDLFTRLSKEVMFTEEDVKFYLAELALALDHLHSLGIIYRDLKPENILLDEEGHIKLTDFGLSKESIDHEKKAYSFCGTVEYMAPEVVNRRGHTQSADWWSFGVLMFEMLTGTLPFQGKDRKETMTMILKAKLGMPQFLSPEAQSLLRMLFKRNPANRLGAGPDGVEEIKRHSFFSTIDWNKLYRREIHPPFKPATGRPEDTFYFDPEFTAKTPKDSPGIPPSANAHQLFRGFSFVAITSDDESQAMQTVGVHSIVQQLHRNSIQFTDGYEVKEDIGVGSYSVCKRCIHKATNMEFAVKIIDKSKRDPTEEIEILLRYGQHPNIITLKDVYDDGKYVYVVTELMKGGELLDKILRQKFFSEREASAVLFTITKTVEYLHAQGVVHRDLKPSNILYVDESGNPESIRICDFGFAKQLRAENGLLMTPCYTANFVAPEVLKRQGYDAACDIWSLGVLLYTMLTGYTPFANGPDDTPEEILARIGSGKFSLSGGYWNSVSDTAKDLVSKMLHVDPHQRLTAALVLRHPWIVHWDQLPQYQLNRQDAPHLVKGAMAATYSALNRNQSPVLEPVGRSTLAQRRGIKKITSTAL
Sequence of Casein kinase I isoform gamma-1 (Homo sapiens) (Q9HCP0 whole entry, looked up, canonical isoform): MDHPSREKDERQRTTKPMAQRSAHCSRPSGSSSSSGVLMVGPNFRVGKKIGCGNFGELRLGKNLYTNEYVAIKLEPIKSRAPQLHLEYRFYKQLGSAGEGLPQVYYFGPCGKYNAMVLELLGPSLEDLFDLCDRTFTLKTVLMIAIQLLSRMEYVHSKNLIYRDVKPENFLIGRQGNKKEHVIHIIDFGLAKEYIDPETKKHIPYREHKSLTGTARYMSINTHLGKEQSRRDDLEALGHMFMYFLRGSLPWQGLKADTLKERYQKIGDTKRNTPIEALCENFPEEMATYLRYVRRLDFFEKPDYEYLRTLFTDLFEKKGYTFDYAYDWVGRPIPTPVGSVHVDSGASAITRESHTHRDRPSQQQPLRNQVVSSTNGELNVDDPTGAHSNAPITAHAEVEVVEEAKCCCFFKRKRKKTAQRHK
Sequence of Cyclin-dependent kinase 16 (Homo sapiens) (Q00536 whole entry): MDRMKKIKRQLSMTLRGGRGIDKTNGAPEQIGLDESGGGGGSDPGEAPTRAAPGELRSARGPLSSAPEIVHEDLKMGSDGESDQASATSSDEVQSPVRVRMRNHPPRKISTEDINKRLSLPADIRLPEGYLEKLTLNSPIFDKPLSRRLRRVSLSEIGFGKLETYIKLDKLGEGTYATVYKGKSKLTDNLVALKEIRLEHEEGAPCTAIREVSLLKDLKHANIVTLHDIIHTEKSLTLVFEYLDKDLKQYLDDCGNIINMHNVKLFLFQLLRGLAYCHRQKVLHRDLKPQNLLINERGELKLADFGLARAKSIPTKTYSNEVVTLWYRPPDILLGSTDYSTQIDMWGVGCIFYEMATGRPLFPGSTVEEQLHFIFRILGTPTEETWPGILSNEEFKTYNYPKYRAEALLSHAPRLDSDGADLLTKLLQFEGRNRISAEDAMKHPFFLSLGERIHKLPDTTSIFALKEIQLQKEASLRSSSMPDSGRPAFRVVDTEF

The ΔTm is the change in melting temperature against a reference sample. Consider `CCOc1cc2ncnc(Nc3cccc(Br)c3)c2cc1OCC`, for which the ΔTm in test [1] came to 0.3 °C; in test [2] it was 2.7 °C; in [3] it was 1.2 °C; in test [4], 0.5 °C; in test [5], 0.6 °C; in test [6], 1.3 °C. Further, the ΔTm is 0.4 °C in test [7]; -1 °C in test [8]; 2.7 °C in test [9]; 0.2 °C in [10]; 3.1 °C in test [11].
Turning to `N=C(N)NCCNS(=O)(=O)c1cccc2cnccc12`, the ΔTm in [1] was -0.3 °C; in test [2] it was -0.1 °C; in [3] it was -0.3 °C; in [4], 0.2 °C; in test [5], 0.1 °C; in [6], -0.3 °C. Also, the ΔTm in test [7] was -0.1 °C; in test [8] it was -0.7 °C; in [9] it was 0.8 °C; in test [10] it was 0.6 °C; in [11] it was 0.1 °C.
For `Cc1nc2sccn2c(=O)c1CCN1CCC(=C(c2ccccc2)c2ccc(F)cc2)CC1`, the ΔTm in [1] was -0.2 °C; in [2], 0.6 °C; in [3] it was -0.2 °C; in test [4] it was 0.1 °C; in test [5], 5.8 °C; in test [6] it was -0.1 °C. Also, the ΔTm in test [7] is 0.8 °C; in [8], -0.5 °C; in [9], 6.1 °C; in [10] it was 2.9 °C; in test [11] it was 2.9 °C.
As for `N#C/C(=C(/N)Sc1ccc(N)cc1)c1ccccc1C(F)(F)F`, the ΔTm is 0.5 °C in [1]; -0.2 °C in [2]; 0.5 °C in test [3]; 0.3 °C in test [4]; -0.1 °C in test [5]; 1.1 °C in test [6]. The ΔTm was 1.3 °C in test [7]; 0 °C in [8]; 0.8 °C in test [9]; -0.1 °C in test [10]; -0.1 °C in test [11].
As for `COc1ccc(S(=O)(=O)N(CCO)c2ccccc2CN(C)C/C=C/c2ccc(Cl)cc2)cc1`, the ΔTm in test [1] is -0.3 °C; in test [2], 0 °C; in [3] it was 0.1 °C; in [4], -0.7 °C; in test [5], -0.1 °C; in test [6], 0.1 °C. Also, the ΔTm in test [7] was -0.1 °C; in test [8], -0.6 °C; in test [9] it was 0.5 °C; in test [10] it was 0.7 °C; in [11] it was 1.3 °C.
As to `CCN(CC)CCNC(=O)c1c(C)[nH]c(/C=C2\C(=O)Nc3ccc(Cl)cc32)c1C` [SU-11652], the ΔTm in [1] was 3.3 °C; in [2], 7.9 °C; in [3] it was 4.3 °C; in [4], 2.9 °C; in test [5], 6.3 °C; in test [6], 3.8 °C. The ΔTm in [7] was determined as 6.4 °C; in [8], 3.5 °C; in [9], 4.7 °C; in test [10], 6.8 °C; in test [11], 8.3 °C.
As to `O=C(Nc1cccc(Nc2cc(Nc3cccc(C(F)(F)F)c3)ncn2)c1)C1CC1`, the ΔTm in test [1] was -0.4 °C; in test [2], 1.7 °C; in test [3], 1 °C; in test [4], 4 °C; in [5] it was 0.9 °C; in [6], 1.7 °C. Moreover, the ΔTm is 0.9 °C in test [7]; 3.9 °C in [8]; 0.1 °C in [9]; 2.6 °C in [10]; -0.2 °C in [11].
In the case of `Cc1ccc(NC2=CC(=O)c3sc(C)nc3C2=O)cc1`, the ΔTm in [1] is 3.7 °C; in test [2] it was -2.4 °C; in test [3] it was -0.6 °C; in test [4] it was -2.4 °C; in test [5], -0.2 °C; in [6] it was -0.5 °C. In addition, the ΔTm was -0.7 °C in test [7]; -0.9 °C in [8]; -0.4 °C in test [9]; -0.9 °C in test [10]; -1.4 °C in [11].
As to `C[S+]([O-])c1ccc(-c2nc(-c3ccc(F)cc3)c(-c3ccncc3)[nH]2)cc1` (stereo unspecified) [SB-203580], the ΔTm in test [1] is 0 °C; in [2] it was 0 °C; in [3], 0.8 °C; in [4], 0.1 °C; in [5], 0.3 °C; in test [6] it was -0.5 °C. The shift in melting temperature (ΔTm) in [7] was 0.1 °C; in test [8] it was -0.8 °C; in test [9], 0 °C; in test [10], -0.2 °C; in [11], 2 °C.
Regarding `COc1cc2c(cc1OC)-c1n[nH]c(Nc3cccc(F)c3)c1C2`, the ΔTm in test [1] turned out to be 0.5 °C; in [2] it was 1.6 °C; in [3] it was 0.7 °C; in [4] it was 2.4 °C; in test [5], 4 °C; in test [6], 1.2 °C. For the same molecule, the ΔTm in test [7] was 0 °C; in test [8] it was -0.3 °C; in test [9] it was 2.6 °C; in test [10], 2.8 °C; in [11], 0.7 °C.
With `CC(C)(C)n1nc(-c2cccc3ccccc23)c2c(N)ncnc21`, the ΔTm is -0.1 °C in [1]; 0.7 °C in test [2]; 0.1 °C in [3]; 2.5 °C in test [4]; 0.8 °C in [5]; -4.9 °C in test [6]. The ΔTm in test [7] was 1.2 °C; in test [8], -0.4 °C; in test [9] it was 0.7 °C; in test [10] it was 0.3 °C; in test [11], 4.5 °C.

Source of the values: ChEMBL document CHEMBL1145498, “A systematic interaction map of validated kinase inhibitors with Ser/Thr kinases” (Proc Natl Acad Sci U S A, 2007).
